Laboratory results reported in patent US20050148553A1, “Use of tigecycline, alone, or in combination with rifampin to treat osteomyelitis and/or septic arthritis” (priority 2003, published 2005).
In brackets after ≈: the same amount, converted by molar mass. Several values for one entry are separate records, joined by “and”; a condition that tells them apart may be missing. Identical values can stand only once.

Key:
M. abcessus = experiment: Susceptibility/MIC of patient isolate, compassionate use study; assay type: cell-based, Mycobacterium abscessus
[1] = Adverse events and weight variance in infected treated rabbits
Excerpt: All rabbits were monitored weekly for weight variance. […] The key for FIGS. 4A and B is as follows: Control=control group, no treatment; Vancomycin=subcutaneous vancomycin treated group; Vanco+Rifampin=subcutaneous vancomycin with oral rifampin treated group; Gar-936=subcutaneous Gar-936 treated group; Gar-936+Rifampin=subcutaneous Gar-936 with oral Rifampin treated group.

[2] = Pharmacokinetics and tolerability of intravenous tigecycline in humans; assay type: in vivo, human
[3] = test system: methicillin-resistant S. aureus
Description: Preparation of the Infective Media: S. aureus was incubated overnight in Mueller Hinton Broth (Difco Laboratories, Detroit, Mich.) medium spiked with 40 μg/ml oxacillin, at 37° C. The bacterial concentration of the culture was adjusted to 10^7 CFU's/ml.
Rabbit Infection Procedure: New Zealand white rabbits (Ray Nicholl's Rabbitry, Lumberton, Tex.), eight to 12 weeks old and weighing 2.0 to 3.5 kg, were utilized for the study. After anesthesia was given, an 18-gauge needle was inserted percutaneously through the lateral aspect of the left tibial metaphysis into the intramedullary cavity. Next, 0.15 ml of 5% sodium morrhuate (American Regent Laboratories, Inc., Shirley, N.Y.), 0.1 ml of S. aureus (10^7 CFU/ml), and 0.2 ml of sterile, normal saline, 0.9%, were injected sequentially.
Group 1 (control group): infected but left untreated for the duration of the study. Group 2: rabbits were treated for 4 weeks with subcutaneous vancomycin at 30 mg/kg twice daily. Group 3: rabbits were treated for 4 weeks with subcutaneous vancomycin at 30 mg/kg twice daily plus oral rifampin at 40 mg/kg twice daily in 0.5% methylcellulose. Group 4: rabbits were treated for 4 weeks with subcutaneous tigecycline at 14 mg/kg twice daily. Group 5: rabbits were treated for 4 weeks with subcutaneous tigecycline at the same dose as in the rabbits in Group 4, plus oral rifampin at 40 mg/kg twice daily in 0.5% methylcellulose. […] Group 6: rabbits were treated for 1 week with subcutaneous tigecycline at the same dose as in Group 4, but were sacrificed 3 hours after administration of the last dose. At that time, blood and infected bone samples were collected and tigecycline concentration was determined. Groups 1 to 5 were left untreated for 2 weeks after treatment phase of the experiment and sacrificed at 8 weeks after infection.
Radiographs of bilateral tibias were taken at initiation of therapy (2 weeks after infection), at the end of antibiotic therapy (6 weeks after infection), and at sacrifice (8 weeks after infection). Radiographs were scored according to a visual scale (Table 1) by three investigators, each blinded to the treatment group, and the grades were averaged.
After sacrifice, gross cultures were performed for right and left tibias. Quantitative counts of S. aureus, in CFUs per gram, of left tibial bone and marrow were determined for all study groups.
Culture Preparation: The bone marrow and the intramedullary canal of bilateral tibias were swabbed with sterile cotton tip applicators for gross cultures analysis of left tibias and quality assurance checks of right tibias. The inoculated applicator was streaked onto blood plates and then placed into 5 ml of sterile TSB. The plates and tubes were then incubated at 37° C. for 24 hours and growth and/or turbidity was recorded.
The bone marrow was placed into a sterile, 50 ml centrifuge tube and weighed. The bone fragments were broken into 0.5 cm^2 chips, placed into a sterile, 50 ml centrifuge tube, and the final product weighed. Normal sterile saline, 0.9%, was added in a 3 to 1 ratio (3 ml saline/gram of bone or marrow) and the suspensions were vortexed for 2 minutes. Six ten-fold dilutions of each suspension were prepared with sterile, normal saline, 0.9%. Twenty-microliter samples of each dilution, including the initial suspension, was plated, in triplicate, onto blood agar plates and incubated at 37° C. for 24 hours. CFUs were counted at the greatest dilution for each tibia sample.

[4] = test system: vancomycin resistant E. faecium; conditions: cited from earlier work
[5] = test system: methicillin-resistant Staphylococcus aureus; conditions: 14 mg/kg bid; cited from earlier work
[6] = Whole body autoradiography after 30-minute 3 mg/kg IV infusion of [^14C]-tigecycline; assay type: in vivo, Long-Evans rats
Description: Male Sprague-Dawley and Long-Evans rats were obtained from Charles River Breeding Laboratories, Raleigh, N.C., and were quarantined for at least one week prior to the start of the study. […] The dosing solution was diluted and radioassayed directly in Ultima Gold scintillation counting cocktail (Packard Inc.). […] All pumps were calibrated prior to the administration of the compound. Rats were anesthetized with isoflurane prior to cardiac puncture exsanguination at the prescribed times after dosing. Sprague-Dawley and Long-Evans rats were sacrificed one per time point at 0.5, 8.5, 24, 72, 168 and 336 hr post-dose. Immediately following euthanasia, each rat was totally immersed in a bath of hexane and dry ice (−75° C.) until frozen. Each carcass was dried and stored at −30° C. until embedded. […] Each frozen rat was sagitally sectioned at −20° C. A sufficient number of sections were collected to ensure sampling of all tissues of interest. The sections were dehydrated overnight in a cryochamber and then rapidly transferred to a dessicator containing CaSO4 to prevent condensation of atmospheric moisture while equilibrating to room temperature. The sections were mounted on cardboard and labeled with [^14C]-labeled black ink with a unique identification number. […] A small piece of Scotch tape was placed over the dried radioactive ink to prevent the contamination of the storage phosphor screens. Phosphor imaging plates, BAS-SR 2025 (Fuji Photo Film Co., Japan) were exposed to bright visible light for 20 minutes using an IP eraser (Raytest, USA Inc., New Castle, Del.) to remove background radiation. Sections and calibration blood standards were concurrently placed in direct contact with Ips and exposed for 7 days. All sections were stored at room temperature in a lead shielding box to minimize background levels. Phosphor images were generated using a Fujifilm BAS-5000 Bio-Imaging Analyzer and quantitated by MCID M2 Software, version 3.2 (Imaging Research Inc., St. Catherines, Ontario, Canada). The STDs and QCs were analyzed using the circular sampling tool in the MCID software program. Areas of interest in whole-body sections were manually outlined with the regional sampling tool to generate count data. Radioactive concentrations in select tissues were determined by digital analysis of the resulting autoradiograms on the basis of a calibration curve. […] The linear regression curve was then used to determine the concentration of unknown radioactivity of study samples. […] Blood samples were combusted using a Model 307 sample oxidizer (Packard Instrument Company). […] Research Triangle Park, N.C.), which applies a model-independent approach and standard procedures as described in Gibaldi and Perrier. Gibaldi, Pharmacokinetics, 1982. […] For IV infusion dosing, C30 min was the concentration at 30 minutes, the first sampling time point. The maximum plasma concentration (Cmax) and the corresponding time of peak concentration following IV administration were obtained directly by numerical inspection from the individual concentration-time data. The terminal half-life was calculated by the ratio of ln2/λz where λz is derived from the terminal slope of the concentration time curve. The area under the plasma concentration versus time curve from zero to infinity was calculated using the trapezoidal rule, where Clast is the last measurable plasma concentration. Tissue to plasma concentration ratios were calculated according to the following equation: Ctissue/Cplasma, where Ctissue equals the drug concentration in tissue (ng equiv./g), and Cplasma equals the drug concentration in plasma (ng equiv./g).

[7] = Mass balance study, 5 mg/kg intravenous dose; assay type: in vivo, Sprague-Dawley rats; conditions: male rats
[8] = average grade, t=14 versus t=56 days
[9] = individual rabbits, left tibia, 8 weeks after infection

## CN(C)c1cc(NC(=O)CNC(C)(C)C)c(O)c2c1C[C@H]1C[C@H]3[C@H](N(C)C)C(O)=C(C(N)=O)C(=O)[C@@]3(O)C(O)=C1C2=O [Tigecycline]
M. abcessus; M. abscessus patient isolate
  susceptibility of the organism: susceptible
M. abcessus; Mycobacteroides abscessus, M. abcessus from a human patient, read-out: minimum inhibitory concentration
  MIC: 0.25 mg/L
[1]; approximately 1.0-1.5 weeks post-antibiotic initiation
  symptoms of gastric dysfunction: mild to severe symptoms of gastric dysfunction
[1]; infected rabbits after antibiotic treatment
  mean weight gain: -0.05 kg
[1]; infected rabbits, 4 weeks treatment
  rabbits that died before completion of treatment: 5
[1]; rabbit model, data not shown
  dosage causing relevant morbidity and mortality: higher than 14 mg/kg per day
[2]; human, in vivo, intravenous, humans
  half-life: 40 to 60 h
[2]; human, in vivo, intravenous, humans, read-out: volume of distribution at steady state
  Vd: 7 to 14 L/kg
[2]; one-hour infusion, human subjects
  dose tolerated: up to 100 mg
[2]; twice daily over nine days, 200 ml infusion over one hour, fed
  dose resulting in gastrointestinal intolerance (nausea and vomiting) in all subjects: ≥ 75 mg
[2]; twice daily, 200 ml infusion over one hour
  dose tolerated: 25 to 50 mg
[3]; [8]
  radiographic improvement (grade): 0.9+/−0.1
  radiographic improvement (percent): 40.9%
[3]; bone cultures at sacrifice
  rabbits/samples positive for MRSA in bone: 1 out of 10 and one rabbit of 10
[3]; compared with 0.33 (5/15) in control group
  proportion of positive cultures in marrow: 0
[3]; end of study, MRSA infected rabbits
  bacterial outcome in bone and marrow, in words: lower colony forming units in bone and marrow
[3]; [9]
  Counts (CFU/gm) Bone: 178.6 CFU/gm and 0 CFU/gm (9×)
  Counts (CFU/gm) Marrow: 0 CFU/gm
[3]; marrow cultures at sacrifice
  rabbits infected in bone marrow: no infection
[3]; t=56 days, p<0.05
  average radiographic grade versus control group: significantly lower
[3]; tibia bone
  average bacterial concentration of the group: 20 CFU/gram bone
[4]
  MIC: 0.125 mg/L (≈ 0.213 µM)
[5]
  efficacy compared with 40 mg/kg vancomycin: more effective

## CN(C)c1cc(NC(=O)CNC(C)(C)C)c(O)c2c1C[C@H]1C[C@H]3[C@H](N(C)C)C(O)=C(C(N)=O)C(=O)[C@@]3(O)C(O)=C1C2=O [[^14C]-Tigecycline]
[6]; Blood
  AUC: 21954 Ng eq hr/g
  T1/2: 62 h
[6]; Blood, 0.5 Hrs
  Mean concentration of total radioactivity: 1296 ng equiv./g
  Tissue:Plasma Ratio: 1.33
[6]; Blood, 24 Hrs
  Mean concentration of total radioactivity: 340 ng equiv./g
  Tissue:Plasma Ratio: 4.81
[6]; Blood, 72 Hrs
  Mean concentration of total radioactivity: 11.8 ng equiv./g
  Tissue:Plasma Ratio: 5.05
[6]; Blood, 168 Hrs
  Mean concentration of total radioactivity: 2.72 ng equiv./g
  Tissue:Plasma Ratio: 5.05
[6]; Blood, 336 Hrs
  Mean concentration of total radioactivity: 1.24 ng equiv./g
[6]; Blood, first AUC column
  AUC: 21843 Ng eq hr/g
[6]; Plasma
  AUC: 12938 Ng eq hr/g
  T1/2: 19 h
[6]; Plasma, 0.5 Hrs
  Mean concentration of total radioactivity: 975 ng equiv./g
  Tissue:Plasma Ratio: 1.00
[6]; Plasma, 24 Hrs
  Mean concentration of total radioactivity: 70.5 ng equiv./g
  Tissue:Plasma Ratio: 1.00
[6]; Plasma, 72 Hrs
  Mean concentration of total radioactivity: 4.31 ng equiv./g
  Tissue:Plasma Ratio: 1.00
[6]; Plasma, 168 Hrs
  Mean concentration of total radioactivity: <1.03 ng equiv./g
  Tissue:Plasma Ratio: 1.00
[6]; Plasma, 336 Hrs
  Mean concentration of total radioactivity: <1.03 ng equiv./g
[6]; Plasma, first AUC column
  AUC: 12923 Ng eq hr/g
[6]; Skin
  AUC: 109296 Ng eq hr/g
  Cmax: 1997 Ng equiv/g
  T1/2: 473 h
  tissue concentration at 336 hours as % of Cmax: 8%
[6]; Skin, 0.5 Hrs
  Mean concentration of total radioactivity: 2502 ng equiv./g
  Tissue:Plasma Ratio: 2.05
[6]; Skin, 24 Hrs
  Mean concentration of total radioactivity: 2363 ng equiv./g
  Tissue:Plasma Ratio: 8.76
[6]; Skin, 72 Hrs
  Mean concentration of total radioactivity: 1787 ng equiv./g
  Tissue:Plasma Ratio: 179
[6]; Skin, 168 Hrs
  Mean concentration of total radioactivity: 351 ng equiv./g
  Tissue:Plasma Ratio: 179
[6]; Skin, 336 Hrs
  Mean concentration of total radioactivity: 211 ng equiv./g
[6]; Skin, first AUC column
  AUC: 58287 Ng eq hr/g
[6]; Uveal Tract
  AUC: 233288 Ng eq hr/g
  Cmax: 2502 Ng equiv/g
  T1/2: 201 h
  tissue concentration at 336 hours as % of Cmax: 1%
[6]; Uveal Tract, 0.5 Hrs
  Mean concentration of total radioactivity: 1997 ng equiv./g
  Tissue:Plasma Ratio: 2.57
[6]; Uveal Tract, 24 Hrs
  Mean concentration of total radioactivity: 124 ng equiv./g
  Tissue:Plasma Ratio: 25.7
[6]; Uveal Tract, 72 Hrs
  Mean concentration of total radioactivity: 96.5 ng equiv./g
  Tissue:Plasma Ratio: 393
[6]; Uveal Tract, 168 Hrs
  Mean concentration of total radioactivity: 74.8 ng equiv./g
  Tissue:Plasma Ratio: 393
[6]; Uveal Tract, 336 Hrs
  Mean concentration of total radioactivity: 19.3 ng equiv./g
[6]; Uveal Tract, first AUC column
  AUC: 131346 Ng eq hr/g
[6]; Uveal Tract, listed as [^14C]-tigecycline
  T1/2: 20 h
[7]
  recovery of radioactivity: 89.4±2.50%
